# Assay results from US20080028486A1, “Aluminium Tolerant Barley” (COMMONWEALTH SCIENTIFIC AND INDUSTRIAL RESEARCH ORGANISATION, priority 2004, published 2008).
# Columns and labels:
# [1] = tested on: transgenic barley T0 lines 4, 5 and 6 expressing ALMT1; assay: Al tolerance assay: root elongation in hydroponic culture, ALMT1 transgenic barley; format: in vivo, Hordeum vulgare
# Experimental: (§1) Plants in hydroponic culture were assessed for Al tolerance using a hydroponic solution described as follows, supplemented with a range of AlCl3 concentrations. The hydroponic solution was made with distilled or deionised water containing 500 μM KNO3, 500 μM CaCl2, 500 μM NH4NO3, 150 μM MgSO4, 100 μM KH2PO4, 2 μM Fe:EDTA, 11 μM H3BO3, 2 μM MnCl2, 0.35 μM ZnCl2 and 0.2 μM CuCl2 adjusted to pH 5.5. The Al screening solution was the same solution as above except it contained 10 μM KH2PO4 instead of 100 μM, 2 μM FeCl3 instead of Fe:EDTA and was adjusted to pH 4.3 instead of 5.5, and was supplemented with AlCl3 at the stated concentration. The plants were grown using these solutions at a temperature of 18-25° C., usually at 20° C.
# (§2) Al tolerance was assessed by determining root elongation of plants grown in hydroponic culture in the continual presence of added Al. The three barley T0 lines that were transformed with ALMT1 and expressing the transgene in the roots were tested in a range of Al levels. […] The ALMT1 gene therefore provided a dramatic enhancement of Al tolerance on the barley plants, to a level that has not been seen previously.
# [2] = tested on: root apices of transgenic barley expressing ALMT1; assay: K+ efflux from excised root apices of transgenic barley line 5; format: cell-based, Hordeum vulgare; conditions: line 5 excised apices, 50 μM Al, mean ±SE, n=4
# Experimental: Al-activated malate efflux from root apices of transgenic barley expressing ALMT1 was accompanied by the efflux of K^+. Net K^+ effluxes from excised apices of line 5 were calculated by subtracting corresponding values obtained for the vector only control line resulting in an efflux of 0.4±0.3 nmoles K^+/h/apex in the absence of Al and an efflux of 5.2±1.0 nmoles K^+/h/apex in the presence of 50 μM Al (means ±SE; n=4).
# [3] = tested on: root apices of transgenic barley expressing ALMT1; assay: Malate efflux from excised root apices of transgenic barley expressing ALMT1; format: cell-based, Hordeum vulgare; conditions: for activation of malate efflux: 50 μM La or Er in basal solution
# Experimental: FIG. 4—Properties of malate efflux from root apices of transgenic barley expressing ALMT1. • (A) Effect of Al concentration on malate efflux (nmoles/h/apex). Excised root apices from ALMT1 line 5 (solid circles) were exposed to Al treatments from 0 to 50 μM in basal solution for 1 h. Error bars show ±standard errors of the means (n=3). The solid squares show efflux from root apices of the control line transformed with the empty vector. • (B) Effects of niflumic acid (nif; 0 to 100 μM), La (50 μM), Er (50 μM) and basal solution (0.2 mM CaCl2 pH 4.3) on malate efflux from root apices of line 5. Excised root apices from line 5 were exposed to the various treatments in basal solution for 1 h. Error bars show ±standard errors of the means (n=3).
# Malate efflux from root segments was assayed using a modification of methods described by Ryan et al. (1995a). Unless stated otherwise, 4 root apices 3 mm long were incubated with shaking in 1 ml of 0.2 mM CaCl2 (pH 4.3) for approximately 1 h. The apices were then rinsed with the CaCl2 solution three times and replaced with 1 ml of the same solution (control) or 1 ml of treatment solution (0.2 mM CaCl2 with added treatment at pH 4.3). After an incubation that typically lasted for 1 h, the solution was removed, dried and the residue re-suspended in 200 μl of buffer used for the spectrographic assay of malate (0.25 M glycine, 0.20 M hydrazine and 2.7 mM NAD adjusted to pH 9). A subsample (100 μl) was transferred to a micro-cuvette and the increase in absorbance at 340 nm measured 6 min after addition of 1 μl of malate dehydrogenase (5 mg/ml) was used to calculate the amount of malate by comparison to a standard curve.
# [4] = tested on: control barley plants (wild type and vector only, cv Golden Promise); assay: Al tolerance assay: root elongation in hydroponic culture, control plants; format: in vivo, Hordeum vulgare
# Experimental: as §1, §2
compound,measurement,setting,value
"[Cl][Al]([Cl])[Cl] [AlCl3, aluminium chloride]",inhibition of root growth,"[1]; ALMT1 line 5, hydroponic culture, 20M AlCl3 as printed",did not show significant inhibition of root growth
same,inhibition of root growth,"[1]; ALMT1 transgenic plants, hydroponic culture, 2, 6 or 12 μM AlCl3",did not exhibit any significant inhibition of root growth
same,net K+ efflux (vector only control values subtracted),[2],5.2±1.0 nmoles K+/h/apex
same,rate of malate efflux from root apices,"[3]; Al-activated efflux, transgenic barley",approx. 1 nmole/apex/h
same,added Al concentration up to which malate efflux increases before starting to level off,"[3]; line 5 root apices, Al 0 to 50 μM in basal solution (0.2 mM CaCl2 pH 4.3), 1 h",about 25 μM
same,inhibition of root growth,[4]; 2 μM AlCl3,50%
same,inhibition of root growth,[4]; 6 μM AlCl3,85-90%
[La] [Lanthanum],activation of malate efflux,"[3]; line 5 root apices, 1 h",ineffective in activating malate efflux
[Er] [erbium],activation of malate efflux,"[3]; line 5 root apices, 1 h","capable of eliciting malate efflux, albeit at a lower level than observed for Al"
O=C(O)c1cccnc1Nc1cccc(C(F)(F)F)c1 [niflumic acid],effect on malate efflux,"[3]; line 5 root apices, niflumic acid 0 to 100 μM, basal solution, 1 h",inhibited
